In ChEMBL document CHEMBL1151055, “A comparative SAR and computer modeling study of benzisothiazolone, mechanism-based inhibitors with porcine pancreatic and human leukocyte elastase” (Bioorg Med Chem Lett, 1996):

Experiments:
[1] = target: T1, Neutrophil elastase (Homo sapiens) (UniProt P08246); test: Irreversible inhibitory activity against human leukocyte elastase
T1 sequence (whole entry): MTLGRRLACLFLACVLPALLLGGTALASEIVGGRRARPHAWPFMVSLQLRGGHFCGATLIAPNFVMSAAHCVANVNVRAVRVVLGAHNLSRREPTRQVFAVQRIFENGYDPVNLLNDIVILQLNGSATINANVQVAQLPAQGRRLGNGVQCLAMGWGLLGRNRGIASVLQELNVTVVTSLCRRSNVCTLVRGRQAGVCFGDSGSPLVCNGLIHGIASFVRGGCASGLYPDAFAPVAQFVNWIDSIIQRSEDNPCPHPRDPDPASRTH

[2] = target: T2, Chymotrypsin-like elastase family member 2A (Sus scrofa) (UniProt P08419); test: Irreversible inhibitory activity against porcine pancreatic elastase
T2 sequence (whole entry): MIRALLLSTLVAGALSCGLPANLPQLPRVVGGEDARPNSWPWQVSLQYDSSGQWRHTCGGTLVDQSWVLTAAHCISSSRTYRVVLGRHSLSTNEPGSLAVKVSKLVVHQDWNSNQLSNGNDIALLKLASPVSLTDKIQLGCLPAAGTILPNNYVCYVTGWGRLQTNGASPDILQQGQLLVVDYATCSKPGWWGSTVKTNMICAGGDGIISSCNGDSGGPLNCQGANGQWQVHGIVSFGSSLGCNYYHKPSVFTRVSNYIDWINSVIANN

k on [1]: 3150 M⁻¹ s⁻¹ | k on [2]: 830 M⁻¹ s⁻¹
SMILES: COC(=O)CCC(=O)N[C@@H](C)C(=O)N[C@@H](C)C(=O)N1CCC[C@@H]1C(=O)N[C@H](C(=O)CCl)C(C)C
